Paper PMC11973094, “Formononetin and mizoribine inhibit Porcine Reproductive and Respiratory Syndrome Virus replication in vitro” (Frontiers in Nutrition, 2025)

Assays:
PRRSV VR-2332 strain [1] = experiment: Viral titer (TCID50) and viral genome (qRT-PCR) of VR-2332 after 36-h incubation with the compounds; assay type: cell-based, Porcine Reproductive and Respiratory Syndrome Virus; settings: for Correlation of concentration with relative expression of the PRRSV genome / Correlation of concentration with viral titer: 36-h incubation, linear fit slope m negative; for Concentrations effectively suppressing viral replication: dose-dependent inhibition
Experimental: (§1) Viral solutions were diluted in a 10-fold gradient. Aliquots of solutions containing varying concentrations of the virus (100 μL each) and DMEM with 2% FBS (100 μL) were added to each well. Add 100 μL of 2% FBS DMEM (without PRRSV) to the control wells. The plates were incubated for 4 days at 37°C in a humidified atmosphere with 5% CO2, after which the virus TCID50 values were calculated using the Reed and Muench formula. To evaluate PRRSV gene expression, we employed the relative quantitative Reverse Transcription Quantitative Polymerase Chain Reaction (qRT-PCR) technique. The resultant data were processed using Design & Analysis Software (Thermo, version 2.6.0) and normalized based on the 2^−ΔΔCt method. For the determination of viral copy numbers, absolute quantitative qRT-PCR was utilized, with sample normalization achieved by quantifying plasmid concentrations prior to the detection process. The specific methods are as described in section 2.4 of our previous paper ([18]). The upstream and downstream primers were: PRRSV 5’-[…]’ and 5’-[…]-3′; Marc-145-GAPDH 5’-[…]-3′ and 5’-[…]-3′; PAM-GAPDH 5’-TCTGGCAAAGTGGACATT-3′ and 5’-[…]-3′.
Figure 3 Assessing the antiviral potency of FMN and MZR on PRRSV. This figure delineates the evaluation of FMN and MZR at varying concentrations for their antiviral effects on the VR-2332 strain. (A,C) Display the EC50 of FMN in PAM and Marc-145 cells, respectively. (B,D) Illustrate the EC50 of MZR in PAM and Marc-145 cells. (E,F) Show alterations in the viral titers of the VR-2332 strain post 36-h incubation with distinct concentrations of FMN or MZR. (G,H) Represent the viral genome changes under similar conditions. Each point in the figure corresponds to raw data from individual experiments. Linear fit slopes are marked in red. Error bars indicate the mean ± SD. TEXT PRINTED IN THE PICTURE: (A) FMN: PAM: EC50: 8.716; PAM: EC90: 223.542 | (B) MZR: PAM: EC50: 8.274; PAM: EC90: 19.945 | (C) FMN: Marc-145: EC50: 16.863; Marc-145: EC90: 104.819 | (D) MZR: Marc-145: EC50: 22.335; Marc-145: EC90: 63.856

PRRSV VR-2332 strain [2] = experiment: Time-of-addition assay, Marc-145 cells infected with VR-2332 (MOI = 1); assay type: cell-based, Porcine Reproductive and Respiratory Syndrome Virus
From the text: The assay commenced with seeding cells into a 96-well plate, followed by their cultivation in DMEM supplemented with 8% FBS. Upon achieving a monolayer, the cells were infected with the VR-2332 strain of PRRSV at a multiplicity of infection (MOI) of 1. One hour after infection, the viral inoculum was discarded, and the cells were cleansed with ice-cold PBS. DMSO or various concentrations of FMN or MZR were then introduced to the culture at different time intervals, as depicted in Figure 1A. Thirty-six hours post-infection, the expression levels of PRRSV RNA were quantified using previously described methods.
Figure 1 Time-of-addition experiment with FMN or MZR. (A) This schematic diagram illustrates the classical experimental protocol for administering drugs at different time points. The experiment began with Marc-145 cells uniformly infected with VR-2332 (MOI = 1) at 0 h, followed by adding varying concentrations of FMN or MZR at specific times. (B,C) FMN or MZR was introduced at −4, 0, 2, 4, 8, and 16 h to examine their impact on various stages of PRRSV replication. All samples were collected for analysis 36 h post-infection. The colors of the bars in the figure correspond to the time points as detailed in (A). Each symbol represents an independent biological replicate. The p-values are indicated, with ‘ns’ denoting p > 0.1234. These values were calculated using one-way ANOVA with Dunnett’s multiple-comparison test, and a p-value less than 0.0332 was considered statistically significant.

PAM cells = experiment: Cytotoxicity (CC50) by CCK-8 assay in PAM cells; assay type: cell-based, Porcine
Experimental: (§2) Cells were treated in a 96-well plate using DMEM supplemented with 8% FBS. After achieving a monolayer formation, the cells were treated with multiple concentrations of the test compound, which were diluted in DMEM containing 2% FBS and added to six replicate wells. As a control, a blank solution consisting of 0.5% DMSO in DMEM was employed. The cells treated with the compound were incubated at 37°C in a humidified atmosphere with 5% CO2 for 48 or 72 h. Subsequently, the half-maximal cytotoxic concentrations (CC50) was measured following the protocol described in section 2.2 of our previous work ([18]). […] EC50 was determined by assessing PRRSV genomic expression levels after three freeze–thaw cycles, and results were plotted using GraphPad Prism 8.
(§3) Figure 2 Evaluating the cytotoxicity of FMN and MZR on Marc-145 and PAM Cells. (A,B) CC50 values for FMN in Marc-145 cells at 48 and 72 h, determined via the CCK-8 assay. (C,D) CC50 of FMN in PAM cells assessed at 48 and 72 h. (E,F) CC50 values for MZR in Marc-145 cells at 48 and 72 h. (G,H) CC50 for MZR in PAM cells, also measured at 48 and 72 h. (I) The antiviral activity of FMN against the PRRSV VR-2332 strain, evaluated via IFA. (J) Antiviral effectiveness of MZR against the VR-2332 strain, assessed using IFA. Control samples were treated with a matching volume of 0.4% DMSO in DMEM. Black dots within the figure symbolize individual data points from each independent experiment. IFA images are from three experimental replicates.

PRRSV VR-2332 strain [3] = experiment: Antiviral EC50 against PRRSV VR-2332 in PAM cells (PRRSV genomic expression); assay type: cell-based; settings: Porcine reproductive and respiratory syndrome virus
Experimental: as §1
(§4) Cells were treated in a 96-well plate using DMEM supplemented with 8% FBS. After achieving a monolayer formation, the cells were treated with multiple concentrations of the test compound, which were diluted in DMEM containing 2% FBS and added to six replicate wells. As a control, a blank solution consisting of 0.5% DMSO in DMEM was employed. The cells treated with the compound were incubated at 37°C in a humidified atmosphere with 5% CO2 for 48 or 72 h. Subsequently, the half-maximal cytotoxic concentrations (CC50) was measured following the protocol described in section 2.2 of our previous work ([18]). For the determination of the half-maximal effective concentration (EC50), each concentration was tested in triplicate wells, using 0.4% DMSO as a blank control. EC50 was determined by assessing PRRSV genomic expression levels after three freeze–thaw cycles, and results were plotted using GraphPad Prism 8.

PRRSV GSWW-15 strain = experiment: Viral titer and gene expression of GSWW-15 strain in PAM cells; assay type: cell-based, Porcine Reproductive and Respiratory Syndrome Virus; settings: 36 h
Experimental: as §1
(§5) Figure 4 Inhibitory effects of FMN and MZR on GSWW-18 and GSWW-15 Strains. (A,C) Changes in PRRSV viral titers in PAM cells incubated with 20 μM of FMN or MZR for 36 h with the GSWW-18 strain. (B,D) Changes in PRRSV viral genome in PAM cells after 36 h of incubation with 20 μM of FMN or MZR with the GSWW-15 strain. The black dots in the figure represent the raw data from each independent experiment. p-values were calculated using one-way ANOVA with Dunnett’s multiple-comparison test. The p-value less than 0.03 was considered statistically significant. Error bars represent the mean ± SD.

PRRSV VR-2332 strain [4] = experiment: Antiviral EC50 against PRRSV VR-2332 in Marc-145 cells (PRRSV genomic expression); assay type: cell-based; settings: Porcine reproductive and respiratory syndrome virus, MARC145, VR-2332 strain
Experimental: as §1, §4

PRRSV VR-2332 strain [5] = experiment: Indirect immunofluorescence assay (IFA) of VR-2332 in PAM cells; assay type: cell-based, Porcine Reproductive and Respiratory Syndrome Virus; settings: within the safety range
Experimental: The following antibodies were used for IFA: Mouse Anti-SR30 (Rtilab, SR30-A) and Goat Anti-Mouse FITC (Bioss, bs-0368G-FITC). After virus inoculation, cells were fixed with 80% cold acetone according to previous experimental conditions for IFA ([18]). A Leica DMI6000 microscope was used for observation.
as §3

PRRSV GSWW-18 strain = experiment: Viral titer and gene expression of GSWW-18 strain in PAM cells; assay type: cell-based, Porcine Reproductive and Respiratory Syndrome Virus; settings: 36 h
Experimental: as §1, §5

Marc-145 cells = experiment: Cytotoxicity (CC50) by CCK-8 assay in Marc-145 cells; assay type: cell-based; settings: for Non-cytotoxic concentrations: Marc-145 and PAM cells, treatment durations shorter than 48 h
Experimental: as §2, with “The cells treated with the compound were incubated at 37°C in a humidified atmosphere with 5% CO2 for 48 or 72 h.” left out
as §3

[6] = Cytotoxicity (CC50) by CCK-8 assay in PAM cells; assay type: cell-based, Porcine; settings: pig
Experimental: as §2, §3

[7] = added 16 h after infection, P > 0.1234
[8] = added in the initial stages post-infection, collected 36 h post-infection
[9] = lower concentrations added 8 h post-infection, P > 0.1234

Structure (SMILES) | Correlation of concentration with relative expression of the PRRSV genome (PRRSV VR-2332 strain [1]) | Correlation of concentration with viral titer (PRRSV VR-2332 strain [1]) | Concentrations effectively suppressing viral replication (PRRSV VR-2332 strain [1]) | Effect on PRRSV replication (PRRSV RNA) (PRRSV VR-2332 strain [2]; [7]) | Effect on PRRSV replication (PRRSV RNA) (PRRSV VR-2332 strain [2]; [8]) | Effect on PRRSV replication (PRRSV RNA) (PRRSV VR-2332 strain [2]; [9]) | EC50 (PRRSV VR-2332 strain [3]) [µM] | EC50 (PRRSV VR-2332 strain [3]; Figure 3, unit inferred) [µM] | EC90 (PRRSV VR-2332 strain [3]; Figure 3, unit inferred) [µM] | Gene expression levels (PRRSV GSWW-15 strain) | Viral titers (PRRSV GSWW-15 strain) | EC50 (PRRSV VR-2332 strain [4]) [µM] | EC50 (PRRSV VR-2332 strain [4]; Figure 3, unit inferred) [µM] | EC90 (PRRSV VR-2332 strain [4]; Figure 3, unit inferred) [µM] | Antiviral activity by IFA (PRRSV VR-2332 strain [5]) | Gene expression levels (PRRSV GSWW-18 strain) | Viral titers (PRRSV GSWW-18 strain) | Non-cytotoxic concentrations (Marc-145 cells) | other results
NC(=O)c1ncn([C@@H]2O[C@H](CO)[C@@H](O)[C@H]2O)c1O [MZR, 1-[(2R,3R,4S,5R)-3,4-dihydroxy-5-(hydroxymethyl)oxolan-2-yl]-5-hydroxy-1H-imidazole-4-carboxamide, reference compound] | negatively correlated | negatively correlated | above 20 μM | entirely ineffective | pronounced antiviral activity | did not significantly impede PRRSV replication | ~8.27 | 8.27 | 19.9 | dose-dependent inverse relationship | dose-dependent reduction | ~22.3 | 22.3 | 63.9 | antiviral efficacy | dose-dependent inverse relationship | dose-dependent reduction | below 100 μM | Cytotoxicity (PAM cells; treatment up to 72 h): negligible cytotoxicity; Cytotoxicity (Marc-145 cells; Marc-145 cells, various concentrations, 48 and 72 h): minimal cytotoxicity
COc1ccc(-c2coc3cc(O)ccc3c2=O)cc1 [FMN, 7-hydroxy-3-(4-methoxyphenyl)-4H-chromen-4-one] | negatively correlated | negatively correlated | above 20 μM | entirely ineffective | pronounced antiviral activity | did not significantly impede PRRSV replication | ~8.72 | 8.72 | 224 | dose-dependent inverse relationship | dose-dependent reduction | ~16.9 | 16.9 | 105 | antiviral efficacy | dose-dependent inverse relationship | dose-dependent reduction | below 100 μM | CC50 at 72 h ([6]; 72 h, printed in the picture of Figure 2D, no unit): 52 µM; CC50 at 72 h ([6]; 72 h exposure): 52 µM; Cytotoxicity (PAM cells; 48 h): non-toxic
